What is called melting point is the temperature, or range, at which the solid turns liquid.

The compound `CCCn1nc2c(N)nc3ccccc3c2c1CC(C)(C)NC(=O)c1ccncc1` registered a melting point of 148 to 150 °C.
Next, `CN1CCN(NC(=O)Nc2cccc3c2C(=O)c2c-3n[nH]c2-c2ccc(N3CCNCC3)cc2)CC1`: 254 °C; `CCS(=O)(=O)Nc1n[nH]c2nc(Oc3ccc(F)cc3F)ncc12`: 226 to 227 °C.
On to `COc1ccc(C(=O)NCCc2ccc(-c3ccc(O)cc3)cc2)c(OC)c1`, for which the melting point came to 190 °C.
Next, `Cc1nc2n(c(=O)c1CCCl)CCCC2OCc1ccccc1` (centres undefined): 140 to 141 °C.
Turning to `Cc1ccc(-c2occc2C(=O)O)cc1`, the melting point was 166 °C.
`CC(=O)NCCC[C@H]1NC(=O)[C@@H](Cc2cn(C)c3ccccc23)NC1=O`: the melting point stood at 138 °C.
For the compound `CCCCCC/C(=C\c1ccccc1)CNc1cccc(-c2ccnc3c(C(=O)c4cccs4)cnn23)c1`, the melting point was 110 to 115 °C.
Next, `CCOCc1nc2c(N)nc(C)c(C)c2n1CCCCS(N)(=O)=O`: 200 to 202 °C; `O=C1C(Cc2ccccc2)C(C(F)(F)F)Nc2ccccc2N1Cc1ccccc1` (centres undefined): 150 to 151 °C; `O=C(Nc1ccc(F)cc1F)NN1CC=CCC1`: 136 to 137 °C.
Next, `O=C1c2ccccc2C(=O)N1CC1=Nc2ccccc2N(Cc2ccccc2)C(=O)C1`: 186 °C; `COc1cc2c(cc1OCc1ccccc1)CCNC2c1ccccc1` (centres undefined): 118 to 119 °C; `CCOC(=O)Cc1csc2nc(C(=O)NCc3cccc(OC)c3)[nH]c(=O)c12`: 169 to 171 °C.
For `CCOC(=O)c1c(C)nc2c(cnn2CC)c1NCCC(C)O` (centres undefined) the value was 94.5 to 96.5 °C; for `CC(C)C(NC(=O)OCc1cccnc1)C(=O)NC(Cc1ccccc1)C(O)C(O)C(Cc1ccccc1)NC(=O)C(NC(=O)OCc1cccnc1)C(C)C` (centres undefined), 202 to 207 °C.
`CCN(CC)c1ncnc2c1ncn2C1CC(F)C(CO)O1` (centres undefined) came in with a melting point of 114 to 115 °C.
Next, `O=C1NC(=O)C(CC#Cc2ccc(Cl)cc2)(Sc2ccc(F)cc2)S1` (centres undefined): 116 to 117 °C; `O=C(C=Cc1ccc(O)c(OC(F)(F)F)c1)C(CCOCCO)C(=O)C=Cc1ccc(O)c(OC(F)(F)F)c1` (centres undefined): 112 to 114 °C.
Next, `N#Cc1ccnc(Nc2ccc(-n3nc(C(F)(F)F)cc3C(F)(F)F)cc2)c1`: 152 to 153 °C.
Next, `Cc1cc(C)cc(-c2nnc(C(N)=O)o2)c1`: 230 °C.
`COC(=O)c1ccn2cc(Cc3cccc(F)c3C)c(-c3ccccc3)c2c1` showed a melting point of 55 °C.
Next, `CCOc1ccc(/C=C(\C)C(=O)O)cc1`: 180 °C.
Next, `NC(=O)COc1ncc(Cl)c(N)c1Cl`: 192 to 193 °C.
Next, `CCOC(=O)c1c(Cc2ccccc2)nc2c(C(F)(F)F)cccc2c1O`: 99 °C.
The compound `CCNC(=O)Nc1cc(-c2c(-c3ccc(F)c(C)c3)nc3c(C)ccnn23)ccn1` had a melting point of 240 to 241 °C.
Next, `CC(C)(O)COc1c(-c2ccc(S(N)(=O)=O)cc2)cnn(-c2ccc(F)c(F)c2)c1=O`: 65 to 69 °C; `CCc1ccc2nc(C)[nH]c2c1N1CC(CI)OC1=O` (centres undefined): 143 to 144 °C.
For `COC(=O)CCCc1cc2nc(Cl)ccc2n1S(=O)(=O)c1ccc(Cl)cc1Cl` the value was 100 to 101 °C.
On to `C=Cc1ccc(-c2ccccn2)cc1`, for which the melting point came out at 19.3 °C.
Next, `COc1cc(C=CC(=O)CC(=O)C(F)(F)F)ccc1O`: 97 to 100 °C.
For `O=C(c1ccc(F)cc1)C1CCN(CCn2c(=O)[nH]c3ccsc3c2=O)CC1` the value was 141 to 143 °C; for `O=C(O)C(CCc1ccccc1)(CCc1ccccc1)C(=O)O`, 168 to 172 °C; for `NCC1CCN(CC(=O)Nc2cccc3c2C(=O)c2c-3n[nH]c2-c2ccc(N3CCOCC3)cc2)CC1`, 240 °C.
For `C=C(C)Cc1cc(NC(C)=O)c(C)c(C)c1O` the value was 149 to 151 °C; for `COC(=O)c1ccccc1Oc1ccc(C)cc1[N+](=O)[O-]`, 71 to 73 °C; for `CCCCOC(=O)c1cc([N+](=O)[O-])c(Cl)c(S(N)(=O)=O)c1`, 140 to 141 °C.
`Cc1cnc(C2=NC(C)(C(C)C)C(=O)N2)c(C(=O)C(=O)N(C)C)c1` (centres undefined) showed a melting point of 180 to 182 °C.
For `Cc1cc(Br)cnc1CCCNc1ncc(Cc2cccnc2)cc1[N+](=O)[O-]` the value was 105 to 106 °C; for `Cc1c(N2C(=O)C[C@@](O)(C3CC3)[C@@H]2C)ccc(C#N)c1Cl`, 231 to 236 °C.
`COC(=O)C=C(Br)SC#N`: the melting point lay within 139 to 142 °C.
For `CN1CCC(C(O)(c2ccn(C)c2)c2ncc[nH]2)CC1` (centres undefined) the value was 171 °C; for `Cc1oc(-c2ccccc2)nc1CCOc1ccc(CNO)cc1`, 99 to 102 °C; for `CCc1noc(-c2ccc(OCCC3CN(c4ccc(Cl)nn4)CCO3)cc2)n1` (centres undefined), 164 °C.
Next, `Nc1ccc2c(=O)n3c(nc2c1)C(=Cc1ccccc1)CCC3`: 190 to 193 °C; `CCCCCC1(C(=O)Nc2ccc(C(=O)O)cn2)CC2=C(C1)C(C)(C)CCC2(C)C`: 172 to 174 °C.
Next, `CCCNC1CCc2nc(N)sc2C1` (centres undefined): 145 to 150 °C.
With `COC(=O)c1ccc(C(=O)C=C(c2cc(Cl)cc(C(F)(F)F)c2)C(F)(F)F)c2ccccc12`, the melting point was 90 to 90.5 °C.
For `Cc1ccc(-c2ccccc2)c(C)c1CO` the value was 77 to 78 °C; for `Cc1ccc(C2c3c(C)c4c(c(C)c3OC2(C)C)CCN4)cc1` (centres undefined), 135 to 136 °C.
For `COc1cc(C#N)ccc1-c1cc(-c2ccc(C#N)cc2)on1` the value was 243 to 244 °C.
For `O=C(NCCSCc1cccc(Br)c1)c1c(Br)cccc1Br` the value was 70 to 72 °C; for `CC(C)Cc1cc(NC(=O)c2nccnc2Cl)ccc1C(C(F)(F)F)C(F)(F)F`, 128 to 129 °C; for `CC(=O)OCCCc1cccc(-c2nc(=O)c3ccccc3s2)n1`, 141 to 142 °C.
Take `CCCNCc1cnc(-c2ncn3c2[C@@H]2CCN2C(=O)c2sccc2-3)o1`: the melting point was in the range of 145 to 147 °C.
Next, `O=C(CN1C(=O)CC1S(=O)c1ccccc1)NCCCCCCc1ccc(Cl)cc1` (centres undefined): 113 to 115 °C; `C=CCn1ccc2cc(NC(=O)c3nc4ccc(Cl)cc4n3Cc3ccccc3)ccc21`: 154 to 155 °C.
Take `CCc1ccc2nc(Cl)nc(Cl)c2c1`: the melting point was in the range of 80 to 83 °C.
Next, `CC(C)n1cc(-c2nc(C(N)=O)c(N)nc2-c2ccccc2F)ccc1=O`: 252 °C; `O=[N+]([O-])CC(SC(=S)N1CCCC1)c1ccccc1` (centres undefined): 116 to 120 °C.
Next, `CCCCCC(Oc1ccc(C2=CCCCCCC2)cc1)C(=O)O` (centres undefined): 57 to 60 °C; `CCOC(OCC)c1c(C#N)cnn1-c1cc(SC)n(C)n1`: 154 to 158 °C.
For `N#CC1=C(Nc2cccc(Cl)c2)CCC1` the value was 111 to 112 °C; for `CCCOc1ncc(NC(C)C(=O)OC)cc1-c1nc2c(CCC)nn(C)c2c(=O)[nH]1` (centres undefined), 185 to 187 °C.

(Values after a melting point compilation (Tetko et al.; mined from patent text by program, amines drawn as free bases though some values may be those of a salt).)
